Measurements reported in patent publication US11219625B2, “Inhibitors of N-linked glycosylation and methods using same” (YALE UNIVERSITY, priority 2015, dated 2022).

Experiments:
[1] = Celltiter Glo viability assay, HepG2; type: cell-based; details: human, HepG2 cells; HEPG2, 72 h of compound exposure; read-out: Cytotoxicity Assay Mean EC50
Source text: (§1) The HTS approach using the bioluminescent N-linked glycosylation reporter (CCR 2011) in D54-ERLucT and D54-LucT cells has been previously described (Bennett, et al., Transl Oncol 2013, 6, 382-391). Briefly, the primary cell-based screen detects site occupancy of NLG sequons using a modified luciferase protein translated into the ER. […] The methodology for the primary (D54-ERlucT), secondary (D54-LucT), and tertiary (luciferase inhibition) screens as well and toxicity assays with CelltitreGlo are deposited in Pubchem (AID 588693).
(§2) To better understand the connection between structure and activity, analogs were prepared and tested in the D54-ERLucT cell based assay for inhibition of N-linked glycosylation (FIG. 1B). The assay was used to estimate and compare AC40 values among analogs and to guide the design of improved compounds that inhibited N-linked glycosylation. This effort generated 36 unique compounds with modifications to the amine component of the sulfonamide functionality (red), the pyrrolidine moiety (blue) or the methylaminothiazole group (green). Generally, incorporation of larger sulfonamides (i.e., larger secondary amines appended to the sulphone) was not well tolerated, resulting in erosion of potency (7 analogs). However, steric interactions could be mitigated by the introduction of a hydrogen bond accepting oxygen in a larger cyclic amine. Thus, morpholine was determined to be an acceptable surrogate for the dimethylamine component of the sulfonamide (FIGS. 1A-1D). The pyrrolidine group (blue) was replaced with various alkyl, cycloalkyl, and amine groups (7 compounds). The aminothiazole moiety was derivatized most extensively of all three regions (green highlighted area, 22 analogs). […] Analogs with the highest potency in the luciferase assay were retested with western blot analysis to insure that measurements of luciferase activation corresponded to loss of N-linked glycosylation.

HepG2 cells = experiment: Celltiter Glo viability assay, HepG2; type: cell-based; details: HEPG2 EC50 over NLG AC40
Source text: as §1, §2

OST = molecular target: T1, OST (Canis lupus familiaris, UniProt F1PJP5); experiment: Cell free OST inhibition, canine pancreas microsomes with in vitro translation of pSAP mRNA; type: biochemical; details: FIG. 2D
T1 construct: rabbit reticulocyte lysate translation system supplemented with canine pancreas rough microsomes (cRM); from tissue; host or cells: canine pancreas rough microsomes
T1 sequence (F1PJP5 1-705): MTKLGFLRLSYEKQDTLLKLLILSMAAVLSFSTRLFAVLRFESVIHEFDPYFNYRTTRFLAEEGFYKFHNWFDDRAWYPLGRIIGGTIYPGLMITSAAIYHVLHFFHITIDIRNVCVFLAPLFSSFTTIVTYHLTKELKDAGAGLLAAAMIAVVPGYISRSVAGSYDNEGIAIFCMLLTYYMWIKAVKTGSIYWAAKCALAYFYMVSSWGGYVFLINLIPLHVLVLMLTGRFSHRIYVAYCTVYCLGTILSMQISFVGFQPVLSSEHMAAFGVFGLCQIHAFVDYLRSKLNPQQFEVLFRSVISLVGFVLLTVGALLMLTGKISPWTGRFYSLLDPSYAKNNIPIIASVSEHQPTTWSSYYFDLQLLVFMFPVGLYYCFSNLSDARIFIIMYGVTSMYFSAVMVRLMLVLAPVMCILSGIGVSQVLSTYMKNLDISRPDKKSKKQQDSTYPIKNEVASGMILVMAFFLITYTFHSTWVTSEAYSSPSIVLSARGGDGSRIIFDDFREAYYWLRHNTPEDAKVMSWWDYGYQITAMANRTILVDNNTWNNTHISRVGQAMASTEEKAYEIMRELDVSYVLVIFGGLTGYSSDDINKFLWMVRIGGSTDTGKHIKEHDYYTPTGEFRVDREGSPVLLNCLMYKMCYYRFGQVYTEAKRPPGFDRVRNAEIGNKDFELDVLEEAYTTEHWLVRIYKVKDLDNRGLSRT
Procedure: FIGS. 2A-2I illustrate the finding that NGI-1 blocks OST function. FIG. 2A illustrates the western blots of glycosylated luciferase (Luc) after treatment with 1 μM tunicmaycin (Tn) and 10 μM NGI-1 in CHO-Lec15 and CHO-Lec35 cells with stable expression of ER-LucT. FIG. 2B is a […] illustrating FACE analysis of lipid linked oligosaccharides (LLOs). FIG. 2C is a series of western blots illustrating the effects of NGI-1 (5 μM) on free oligosaccharides (left panel) and N-linked glycans cleaved from peptides with Peptide-N-Glycosidase F (right panel). Carbohydrate size is indicated with glucose markers (G4-G7). FIG. 2D is a western blot illustrating cell free inhibition of the OST using a rabbit reticulocyte lysate translation system supplemented with canine pancreas rough microsomes (cRM). […] FIGS. 2G-2H: Dose response and quantitation of NGI-1 effect on pSAP (squares) and SHBG glycosylation (circles). […]
The OST is an ER resident multi-subunit complex that cleaves LLOs and transfers the oligosaccharide to a protein encoded N-linked glycosylation consensus sequence (NXT/S). […] Both enzymatic products of the OST, free glycans and protein glycans, were therefore determined with and without NGI-1 treatment using optimized conditions in streptolysin-O permeabilized CHO cells (FIG. 2C). […]

Cc1cnc(NC(=O)c2cc(S(=O)(=O)N(C)C)ccc2N2CCCC2)s1 [NGI-1, 5-(N,N-Dimethylsulfamoyl)-N-(5-methylthiazol-2-yl)-2-(pyrrolidin-1-yl)benzamide]
EC50 at 72 h [1]: > 30 µM | Selectivity (EC50/AC40) (HepG2 cells): >172 | inhibition of pSAP N-linked glycosylation, cell free (OST): dose dependent inhibition of pSAP N-linked glycosylation
